In PubChem BioAssay AID977628 (Broad Institute, 2014) one finds AC50 data, which are given here for 63 molecules.

Structures are written as SMILES. Inconclusive results are not listed. The source made the active and inactive calls.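 The calls were made as follows: active = compound lowering the normal-ribosome reporter at least twice as much as the humanized-ribosome reporter, growth loss under a set limit; inconclusive = no clear call, values can overlap the other calls; inactive = the rest.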

Test [1] relates to E. coli mixed WT/h24 culture total growth, OD600, 24 h. The experiment in a line: E. coli growth inhibition, wild-type GFP versus h24 humanized RFP strain, dose response, h24 mutant RFP vs wild-type GFP, cherry-pick (AID 977628).
Test [2] relates to E. coli WT GFP strain growth, fluorescence, 24 h. The test is described as above.

One may read the AC50 as the concentration at which the activity in the assay is half-maximal. Regarding `COCC#Cc1ccc2c(c1)O[C@@H](CN(C)S(=O)(=O)c1cccc(F)c1)[C@@H](C)CN([C@H](C)CO)S2(=O)=O`, the values for the AC50 in test [1] and in test [2] were 50 µM and > 100 µM (inactive), respectively.
Consider `O=C(NCc1ccc(Cl)cc1)c1csc(-c2cccnc2)n1`, for which the concentration at half-maximal activity (AC50) in test [1] was 49.1 µM; in test [2], > 100 µM (inactive).
In the case of `CCOC(=O)c1nc(C)sc1-c1ccnn1S(=O)(=O)c1cccc(Cl)c1`, the half-maximal activity concentration (AC50) in test [1] is 41.7 µM; in test [2] it was > 100 µM (inactive).
For `CCCN(CC1CC1)C(=O)CSc1ncnc2sccc12`, in that order: greater than 100 µM and > 100 µM (inactive).
In the same order, the values of `CC(C)Cn1c(=O)c2ccccc2c2ccccc2c1=O` are greater than 100 µM and > 100 µM (inactive).
Turning to `CC(C)Oc1cccc(C(=O)C2CCCN(C(=O)c3cc(C(F)(F)F)[nH]n3)C2)c1` (stereo unspecified), the concentration at half-maximal activity (AC50) was 51.3 µM in test [1] and > 100 µM (inactive) in test [2].
In the same order, the values of `CCOc1ccc(S(=O)(=O)Nc2ccc(S(=O)(=O)N3CCCC3)cc2)cc1` are 40.8 µM and > 100 µM (inactive).
Turning to `CCOc1ccc(CCNC(=O)CCc2nc3ccccc3[nH]2)cc1OCC`, the AC50 in test [1] was greater than 100 µM; in test [2], > 100 µM (inactive).
Regarding `CCOc1cccc2sc(NC(=O)CC)nc12`, the concentration at half-maximal activity (AC50) in test [1] was greater than 100 µM; in test [2] it was > 100 µM (inactive).
As for `S=C1SCN(Cc2cccnc2)CN1Cc1ccccc1`, the AC50 in test [1] was greater than 100 µM; in test [2], > 100 µM (inactive).
For `C[C@@H]1CN([C@@H](C)CO)C(=O)c2cccc(NC(=O)Nc3ccccc3)c2O[C@@H]1CN(C)S(=O)(=O)c1ccc(Cl)cc1`, in that order: 49.6 µM and > 100 µM (inactive).
`COc1ccc(N(C)S(=O)(=O)c2cccc(C(=O)NC3CCCCC3C)c2)cc1` (stereo unspecified): the AC50 in test [1] was 47.7 µM; in test [2] it was > 100 µM (inactive).
As for `CC(=O)Nc1ccc(S(=O)(=O)Nc2cccc(-c3nc4cc(C)ccc4o3)c2)cc1`, the values for the concentration at half-maximal activity (AC50) in test [1] and in test [2] were greater than 100 µM and > 100 µM (inactive), respectively.
For the molecule `Cn1cnc(CCNC(=O)C[C@H]2CC[C@@H]3[C@H](COC[C@H](O)CN3C(=O)Nc3ccc(Cl)cc3)O2)c1`, the values for the half-maximal activity concentration (AC50) in test [1] and in test [2] were greater than 100 µM and > 100 µM (inactive), respectively.
For `COc1ccc(OCC(=O)N2c3ccccc3CC2C)c([N+](=O)[O-])c1` (stereo unspecified), in that order: greater than 100 µM and > 100 µM (inactive).
For `COc1ccc(OC)c(NC(=O)COC(=O)C2CCN(C(=O)c3ccc(Cl)cc3)CC2)c1`, in that order: greater than 100 µM and > 100 µM (inactive).
As for `O=[N+]([O-])c1ccccc1Oc1ccc(Cl)c2cccnc12`, the AC50 in test [1] was greater than 100 µM; in test [2], > 100 µM (inactive).
On to `C(=C(c1ccccc1)c1ccccc1)c1ccccn1`, for which the AC50 is greater than 100 µM in test [1] and > 100 µM (inactive) in test [2].
Turning to `Cc1onc(-c2ccccc2)c1-c1nnc(-c2ccccc2C(F)(F)F)o1`, the AC50 in test [1] was greater than 100 µM; in test [2], > 100 µM (inactive).
As for `Cc1ccc(NC(=O)c2cccs2)cc1[N+](=O)[O-]`, the figures for the concentration at half-maximal activity (AC50) in test [1] and in test [2] were greater than 100 µM and > 100 µM (inactive), respectively.
Turning to `NC(=O)C1Cc2ccccc2CN1C(=O)c1cc(C2CC2)nn1-c1ccccc1` (stereo unspecified), the AC50 in test [1] is 46.8 µM; in test [2], > 100 µM (inactive).
Turning to `COc1ccc(C(=O)Cn2nnc(-c3ccccc3F)n2)cc1`, the AC50 in test [1] is 48.8 µM; in test [2], > 100 µM (inactive).
For `COc1ccc(NC(=O)CCC(=O)c2cccs2)cc1S(=O)(=O)Nc1ccc(Cl)cc1`, in that order: greater than 100 µM and > 100 µM (inactive).
In the same order, the values of `Cc1ccc(C(=O)Nc2cccc(-c3cn4ccccc4n3)c2)cc1` are 51.5 µM and > 100 µM (inactive).
In the same order, the values of `CCOC(=O)c1ccc(CC(=O)c2oc3cc(O)ccc3c2C)o1` are greater than 100 µM and > 100 µM (inactive).
`O=C(NCC(c1ccc(F)cc1)N1CCOCC1)c1ccc([N+](=O)[O-])o1` (stereo unspecified): the AC50 in test [1] is greater than 100 µM; in test [2] it was > 100 µM (inactive).
For the molecule `O=C(CCCn1c(=S)[nH]c2ccsc2c1=O)Nc1ccc2c(c1)OCCO2`, the concentration at half-maximal activity (AC50) was 46.7 µM in test [1] and > 100 µM (inactive) in test [2].
On to `Cc1ccc(NC(=O)CCCSc2ccccc2)cc1S(=O)(=O)N1CCOCC1`, for which the AC50 in test [1] was greater than 100 µM; in test [2], > 100 µM (inactive).
Consider `Cc1ccccc1COc1ccc(-c2nn[nH]n2)cc1`, for which the AC50 was 39.4 µM in test [1] and > 100 µM (inactive) in test [2].
Consider `O=C(Nc1cccc(Cl)c1)N1C[C@@H]2[C@H](c3ccccc31)[C@H](CO)N2Cc1ccncc1`, for which the AC50 in test [1] was greater than 100 µM; in test [2], > 100 µM (inactive).
As to `CC1CCN(c2ccc3nnc(CCC(=O)Nc4cccc(F)c4)n3n2)CC1`, the values for the concentration at half-maximal activity (AC50) in test [1] and in test [2] were greater than 100 µM and > 100 µM (inactive), respectively.
For `CC(C)Oc1ccc(C(CC(=O)O)NC(=O)C(Sc2ccccc2)c2ccccc2)cc1` (stereo unspecified), in that order: greater than 100 µM and > 100 µM (inactive).
Take `CN(Cc1ccccc1)C(=O)c1[nH]cnc1C(=O)NCc1ccccc1`: the results for the concentration at half-maximal activity (AC50) in test [1] and in test [2] were greater than 100 µM and > 100 µM (inactive), respectively.
In the same order, the values of `O=S(=O)(Nc1ccc(-c2nc3cccnc3s2)cc1)c1cc(F)ccc1F` are greater than 100 µM and > 100 µM (inactive).
As to `CN(C)C(=O)C1C2NC(=S)N(c3cccc(Cl)c3)C1(C)Oc1ccc(Cl)cc12` (stereo unspecified), the AC50 in test [1] is greater than 100 µM; in test [2], > 100 µM (inactive).
In the same order, the values of `COc1ccc(C2=Nc3ccccc3NC(=O)C2N(C(=O)c2ccnc3ccccc23)c2ccccc2)cc1` (stereo unspecified) are 43 µM and > 100 µM (inactive).
In the same order, the values of `CC(C)(C)C1CCC(OCC(O)CN2CCN(c3ccccn3)CC2)CC1` (stereo unspecified) are 41 µM and > 100 µM (inactive).
For `O=C(Nc1ccc(F)cc1)N1CCCCN2[C@@H](CO)[C@H](c3ccc(-c4ccncc4)cc3)[C@@H]2C1`, in that order: greater than 100 µM and > 100 µM (inactive).
As for `COc1cc2c(cc1OC)CN(c1ccc([N+](=O)[O-])c(C(F)(F)F)c1)CC2`, the figures for the AC50 in test [1] and in test [2] were greater than 100 µM and > 100 µM (inactive), respectively.
`CCOc1ccc(OCC)c(NC(=O)CSc2nc3c(c(=O)n(C)c(=O)n3C)n2C(C)C)c1`: the AC50 is 45.5 µM in test [1] and > 100 µM (inactive) in test [2].
`Nc1[nH]c(C(=O)c2ccccc2)c(-c2ccc(Cl)cc2)c1C(=O)NCCc1c[nH]c2ccccc12`: the AC50 in test [1] is greater than 100 µM; in test [2], > 100 µM (inactive).
For `CCOc1ccc(OCCn2c(=S)[nH]c3c(N)ncnc32)cc1`, in that order: 47.8 µM and > 100 µM (inactive).
Regarding `COC(=O)c1ccc(CSc2nc(-c3ccccc3)cs2)o1`, the concentration at half-maximal activity (AC50) in test [1] was 27.1 µM; in test [2] it was > 100 µM (inactive).
Turning to `O=C(CN(c1ccc(F)cc1)S(=O)(=O)c1ccccc1)Nc1ccccc1C(=O)O`, the concentration at half-maximal activity (AC50) is greater than 100 µM in test [1] and > 100 µM (inactive) in test [2].
For `CCCn1c(=O)c2ccccc2n2c(SCCOc3ccc(OC)cc3)nnc12`, in that order: greater than 100 µM and > 100 µM (inactive).
Take `CC(C)Oc1cccc(C(=O)C2CCCN(Cc3ccc4nonc4c3)C2)c1` (stereo unspecified): the figures for the AC50 in test [1] and in test [2] were 36.8 µM and > 100 µM (inactive), respectively.
As for `Cc1cc(C(=O)OCC(=O)Nc2cccc(S(N)(=O)=O)c2)c2ccccc2n1`, the AC50 in test [1] is greater than 100 µM; in test [2] it was > 100 µM (inactive).
For `Cn1c(SCC(=O)Nc2ccccc2-c2ccccc2)nnc1-c1ccco1`, in that order: greater than 100 µM and > 100 µM (inactive).
As to `O=C(CC(=O)c1cccs1)c1ccncc1`, the concentration at half-maximal activity (AC50) is greater than 100 µM in test [1] and > 100 µM (inactive) in test [2].
`COC(=O)c1cc(C(=O)Cc2ccccc2)c[nH]1`: the AC50 in test [1] is greater than 100 µM; in test [2] it was > 100 µM (inactive).
In the same order, the values of `COc1ccc(-c2nc3ccc(Cl)cn3c2Cc2cccc(F)c2)cc1OC` are 51.6 µM and > 100 µM (inactive).
Take `CCCNC(=O)c1noc2c1CCc1cc(OC)ccc1-2`: the half-maximal activity concentration (AC50) in test [1] is 34.8 µM; in test [2], > 100 µM (inactive).
In the case of `Cc1c(C(=O)O)oc2ccc(S(=O)(=O)NC3CCCCCCC3)cc12`, the half-maximal activity concentration (AC50) is 41.4 µM in test [1] and > 100 µM (inactive) in test [2].
For `CCOc1ccc(NC(=O)CCc2nnc3ccc(N4CCC(C)CC4)nn23)cc1`, in that order: greater than 100 µM and > 100 µM (inactive).
As to `CCOc1ccccc1/C=C/c1cc(C(=O)O)c2ccccc2n1`, the values for the AC50 in test [1] and in test [2] were 37.6 µM and > 100 µM (inactive), respectively.
Regarding `Cc1cccc(OCCC(=O)Nc2ccc(F)c(F)c2)c1`, the AC50 in test [1] was greater than 100 µM; in test [2], > 100 µM (inactive).
For `CCOC(=O)C(CC)Sc1cc(C)nc2ccc(OC)cc12` (stereo unspecified), in that order: greater than 100 µM and > 100 µM (inactive).
For `COc1ccc(S(=O)(=O)Cc2ccc(C(=O)N3CCN(c4cc(Cl)ccc4C)CC3)o2)cc1`, in that order: 49.9 µM and > 100 µM (inactive).
In the same order, the values of `Fc1ccc(-n2cc(CNCCc3cccnc3)c(-c3ccccc3Cl)n2)cc1` are 49.2 µM and > 100 µM (inactive).
As to `CCN(CC(=O)Nc1ccccc1OC)CC(=O)Nc1c(Cl)ccc(C)c1Cl`, the AC50 in test [1] was greater than 100 µM; in test [2], > 100 µM (inactive).
For the molecule `COc1ccc(C(=O)Nc2ccc3nc(C)sc3c2)cc1OC`, the AC50 is greater than 100 µM in test [1] and > 100 µM (inactive) in test [2].
For `Cc1cc(C)n(CC(O)COc2ccc3ccccc3c2)n1` (stereo unspecified), in that order: greater than 100 µM and > 100 µM (inactive).
As for `O=C(COc1ccc(Cl)cc1)Nc1ncc([N+](=O)[O-])s1`, the half-maximal activity concentration (AC50) was 40.2 µM in test [1] and > 100 µM (inactive) in test [2].
